In patent US12616706B2, “Compositions and methods of use comprising substances with neural plasticity actions administered at non-psychedelic/psychotomimetic dosages and formulations” (Arbormentis LLC, priority 2019, dated 2026):
Where “and” joins values, the source holds several entries; their conditions need not be identical. Equal entries are not always repeated.

What was measured:
5-HT2A receptors = 5-HT2A receptors (Homo sapiens, UniProt P28223); details: Rickli et al., 2017; cited from earlier work
[1] = cited from earlier work
IMR-90 = assay: Beta Gal assay, UVB induced senescence; format: cell-based
Description: Seeding occurred on Day 1, with pretreatment on Day 2, and UVB-induction and retreatment on Day 3, SABG on Day 8, and microscopy (SABG) on Day 9. […] Results for Example 6 can be seen in FIGS. 19A-27D, and Tables 4, 5, and 6 below.

BDNF = details: only the lower dose, 25 mg daily, 14-day period; cited from earlier work
5-HT2A = 5-HT2A receptor expression in ARPE-19 cells (immunofluorescence); format: cell-based; details: acute and chronic psilocin exposure; decreasing tendency
Procedure: (§1) First, the present inventors assessed the expression of three NMDAR subunits (NMDAR1, NMDAR2A, NMDAR2B) and two 5-HT2 subtypes (5-HT2A, 5-HT2C) by immunofluorescence coupled to confocal microscopy. 7,500 cells/well were plated in a 24-well plate on sterile glass coverslips. The next day, the immunofluorescence analysis was performed. The following primary antibodies were used: anti-NMDAR1A (Abcam, ab68144), NMDAR2A (Bioss, bs-3507R-TR), NMDAR2B (Bioss, bs-0222R-TR), 5-HT2A (Bioss, bs-12049R), 5-HT2C (Bioss, 2959R), and the secondary antibody goat anti-rabbit IgG (GeneTex, GTX213110-04). The images of the immunostained cells were acquired by means of a confocal microscope Zeiss LSM 800, using a 63× magnification and can be seen in FIGS. 9A-9E. ImageJ software was used to quantify the intensity of the fluorescent signal.
(§2) 7,500 cells/well were plated in a 24-well plate on sterile glass coverslips. […] After 6 days an immunofluorescence analysis coupled to confocal microscopy was performed with the primary and secondary antibodies described above.

TNF-α = TNF-α expression in keratocytes exposed to CM of activated U937 (qPCR); format: cell-based, human; details: 0.1 and 1 μM psilocin
Procedure: (§3) Anti-inflammatory and anti-fibrotic effects evaluations. Cytokines expression was analyzed in human keratocytes and HCE cells exposed to the inflammatory conditioned medium (CM) of activated U937 cells.
(§4) U937 human monocytes were differentiated to macrophages by treatment with 50 ng/mL phorbol myristate acetate (PMA) for 48 h followed by the exposure to […] lipopolysaccharide (LPS) for 1 hour. Cells were then washed and cultivated with complete RPMI for 24 hours to produce the inflammatory CM. The CM was collected, filtered and stored at −80° C. The differentiation of monocytes to macrophages was examined under an inverted phase-contrast microscope and the mRNA expression of the macrophage differentiation marker CD68 was analysed by quantitative real time PCR (qPCR). Cells were then washed and cultivated with complete DMEM for 24 hours to produce the CM. The CM was collected, filtered and stored at −80° C.
(§5) At 4 and 10 or at 4, 10 and 24 h cells were detached […] extracted to analyze the expression of pro-inflammatory cytokines (IL-1β, TNF-α, IL-8, IL-12, IFNγ). The expression of type collagen I and VEGF was analysed on mRNA extracted from keratocyte cell cultures. The experiments were performed three times.

collagen type I = assay: Collagen type I expression in keratocytes exposed to CM of activated U937 (qPCR); format: cell-based, human; details: 0.1 and 1 μM psilocin, 4, 10 and 24 h
Procedure: as §3, §4, §5

VEGF = VEGF expression in keratocytes exposed to CM of activated U937 (qPCR); format: cell-based, human; details: 0.1 and 1 μM psilocin, 4, 10 and 24 h
Procedure: as §3, §4, §5

IL-8 [2] = assay: IL-8 expression in keratocytes exposed to CM of activated U937 (qPCR); format: cell-based, human; details: 0.1 and 1 μM psilocin, 4 and 10 h
Procedure: as §3, §4, §5

NMDAR2A = NMDAR2A protein expression in ARPE-19 cells (immunofluorescence); format: cell-based
Procedure: as §1, §2

IL-8 [3] = assay: IL-8 expression in HCE cells exposed to CM of activated U937 (qPCR); format: cell-based, human; details: 0.1 and 1 μM psilocin, 10 h
Procedure: as §3, §4, §5

NMDAR2B = NMDAR2B protein expression in ARPE-19 cells (immunofluorescence); format: cell-based
Procedure: as §1, §2

[4] = after ingestion of psilocybin mushrooms; cited from earlier work
corneal cells = assay: Psilocin cytotoxicity in corneal cells; format: cell-based, human; details: 0.001 to 10 μM, assessed 3 days after treatment
Procedure: (§6) Cell cultures. Human corneal epithelial (HCE) cells were obtained from the American Type Culture Collection. U937 human monocytes cell line was purchased from Thermo Scientific.
(§7) Primary corneal keratocytes were obtained after digestion of human corneas from healthy donors purchased at the Veneto Eye Bank Foundation (Venezia Mestre, Italy). After the corneal epithelium was removed with a cell scraper and the endothelium was enzymatically detached using 0.05% trypsin/0.02% EDTA-solution for 15 minutes at 37° C., the stroma was then cut into 3- to 4-mm pieces and treated overnight at 37° C. with type I collagenase (100 U/ml) and hyaluronidase (2 mg/ml) solutions in Dulbecco's Modified Eagle's Medium (DMEM). Isolated keratocytes were then seeded in monolayer and cultured at 37° C. with 5% CO2 in DMEM containing 10% FBS, 1% penicillin-streptomycin (P/S) and 1% L-glutamine (otherwise known as complete medium). Expanded cells were trypsinized and sub-cultured at a ratio of 1:2. Corneal cells were grown under standard cell culture practices in complete DMEM medium at 37° C., in a 5% CO2 atmosphere. U937 human monocytes were grown in suspension in complete RPMI 1640 medium and passaged twice weekly by dilution using a seeding density of 10^6 cells/ml.
(§8) With this procedure, only viable cells with functioning mitochondria can oxidize MTT to a violet-red reaction product.

5-HT2C = 5-HT2C receptor expression in ARPE-19 cells (immunofluorescence); format: cell-based; details: chronic treatment with psilocin
Procedure: as §1, §2

IL-1β = IL-1β expression in keratocytes exposed to CM of activated U937 (qPCR); format: cell-based, human; details: 0.1 and 1 μM psilocin, 4 h
Procedure: as §3, §4, §5

IL-12 = IL-12 expression in keratocytes exposed to CM of activated U937 (qPCR); format: cell-based, human; details: 0.1 and 1 μM psilocin, 4 and 10 h
Procedure: as §3, §4, §5

NMDAR1 = NMDAR1 protein expression in ARPE-19 cells (immunofluorescence); format: cell-based
Procedure: as §1, §2

keratocytes = assay: Cell viability, MTT test, keratocytes; format: cell-based, human
Procedure: as §7, §8

[5] = system: Human corneal epithelial (HCE) cells; assay: Cell viability, MTT test, HCE cells; format: cell-based
Description: as §6, §8

[6] = 0.05 μM, alternating medium with/without psilocin every 24 hours (96 hours)
[7] = 3 and 6 days after treatment, 0.01, 0.1 and 1 μM

Sequence of 5-HT2A receptors (P28223 whole entry): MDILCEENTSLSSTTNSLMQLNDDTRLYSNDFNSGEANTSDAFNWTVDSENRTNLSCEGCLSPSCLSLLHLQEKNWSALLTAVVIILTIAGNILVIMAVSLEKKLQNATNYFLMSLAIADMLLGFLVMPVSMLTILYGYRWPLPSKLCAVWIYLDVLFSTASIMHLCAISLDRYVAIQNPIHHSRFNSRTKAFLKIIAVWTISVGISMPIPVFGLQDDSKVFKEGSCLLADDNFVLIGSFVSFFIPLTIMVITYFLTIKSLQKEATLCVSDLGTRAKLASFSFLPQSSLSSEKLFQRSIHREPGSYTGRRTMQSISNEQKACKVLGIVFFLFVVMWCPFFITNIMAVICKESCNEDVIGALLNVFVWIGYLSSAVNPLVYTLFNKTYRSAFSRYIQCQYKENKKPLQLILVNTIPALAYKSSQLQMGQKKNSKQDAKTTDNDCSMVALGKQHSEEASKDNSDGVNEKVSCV

CCC(=O)C(C[C@H](C)N(C)C)(c1ccccc1)c1ccccc1 [D methadone, dextromethadone]
Affinity of 5-HT-2A receptors (5-HT2A receptors): nanomolar range | Nootropic signal ([1]; only the lowest tested dose of 5 mg): elicited a nootropic signal | MTD ([1]; single ascending dose 5-200 mg, nausea and vomiting): 150 mg | Avg % Beta Gal+ cells (IMR-90; D methadone 10 nM): 79.01% | Total % Beta Gal+ cells (IMR-90; D methadone 10 nM): 81.29% | % Beta Gal+ cells, single well/duplicate (IMR-90; D methadone 10 nM, UVB without treatment Avg 85.63514): 71.875% and 85.71% and 77.19% and 81.25% | % Beta Gal+ cells, single well/duplicate (IMR-90; D methadone 500 nM): 82.86% and 82.35% and 76.47% and 91.67% | Avg % Beta Gal+ cells (IMR-90; D methadone 500 nM): 83.34% | Total % Beta Gal+ cells (IMR-90; D methadone 500 nM): 83.94% | Plasma BDNF (BDNF): statistically significant increase in plasma BDNF

CN(C)CCc1c[nH]c2cccc(O)c12 [psilocin]
Expression of 5-HT2A receptor (5-HT2A): virtually no effect | TNF-α mRNA expression (TNF-α): very low and comparable to that of cells treated only with CM | Collagen type I gene expression (collagen type I): did not change significantly | VEGF I gene expression (VEGF): did not change significantly | IL-8 mRNA expression (IL-8 [2]): significant decrease | NMDAR2A subunit protein expression (NMDAR2A; psilocin 0.05 μM for 6-days): dramatic increase | NMDAR2A subunit protein expression (NMDAR2A; psilocin 10 μM for 24 hours): slight, not significant increase | % Beta Gal+ cells, single well/duplicate (IMR-90; Psilocin 5 nM): 86.67% and 75% and 85.71% and 81.82% | Avg % Beta Gal+ cells (IMR-90; Psilocin 5 nM): 82.3% | Total % Beta Gal+ cells (IMR-90; Psilocin 5 nM): 64.45% | Antisenescence effects (IMR-90; higher doses of psilocin (up 24 microM, experiment not shown)): no antisenescence effects | Antisenescence effects (IMR-90; psilocin lower doses (5 nM)): no antisenescence effects | IL-8 gene expression (IL-8 [3]): significant down-regulation | NMDAR2B expression (NMDAR2B; [6]): decrease of NMDAR2B expression | NMDAR2B subunit protein expression (NMDAR2B; psilocin 0.05 μM for 6-days): did not change | NMDAR2B subunit protein expression (NMDAR2B; psilocin 10 μM for 24 hours): did not change | Psilocin in bile [4]: 3102 ng/mL | Psilocin in cardiac blood [4]: 67 ng/mL | Psilocin in peripheral blood [4]: 60 ng/mL | Psilocin in urine [4]: 2230 ng/mL | Psilocin in vitreous humor [4]: 57 ng/mL | Cytotoxic effect in vitro (corneal cells): does not have a cytotoxic effect | Expression of 5-HT2C (5-HT2C): increased after chronic treatment | IL-1β mRNA expression (IL-1β): significant decrease | IL-12 mRNA expression (IL-12): significant decrease | NMDAR1 expression (NMDAR1; [6]): increase of NMDAR1 expression | NMDAR1 expression (NMDAR1; alternate incubation or psilocin-containing medium replaced every day (FIGS. 11G-11I context)): increased significantly | NMDAR1 subunit protein expression (NMDAR1; psilocin 0.05 μM for 6-days): dramatic increase | NMDAR1 subunit protein expression (NMDAR1; psilocin 10 μM for 24 hours): slight, not significant increase | Corneal cell viability (keratocytes; [7]): significant increase in corneal cell viability | Cell viability (MTT) (keratocytes; keratocytes, 0.1 to 1 μM psilocin, up to 6 days): significant increased viability | Corneal cell viability [5, 7]: significant increase in corneal cell viability | Cell viability (MTT) ([5]; HCE cells, 0.1 to 1 μM psilocin, up to 6 days): significant increased viability
